Patent US20240270740A1, “INHIBITORS OF CYCLIC GMP-AMP SYNTHASE AND USES THEREOF” (Ventus Therapeutics U.S., Inc., priority 2022, published 2024)

Target: hcGAS (Homo sapiens, UniProt Q8N884)
Test: hcGAS LCMS assay (direct measurement of cGAMP production)
Assay type: biochemical
Settings: 0.5 nM hcGAS, 100 μM ATP, 100 μM GTP, 25 nM dsDNA, 4 h incubation
Protocol: cGAS catalyzes the cyclization of ATP and GTP to produce cGAMP, which is the activating ligand of STING. Human cGAS (hcGAS) inhibition can thus be quantified by measuring how much cGAMP is formed either indirectly, by monitoring ATP-depletion as in the hcGAS Kinase-Glo assay (as described below), or directly, such as using the hcGAS LCMS assay (as described below).
Compounds were tested for their h-cGAS inhibition activity using direct measurement of cGAMP production by LC/MS. Briefly, compounds were incubated with enzyme and substrates for 4 hours (see Table C), before the reaction was stopped with 3 volumes of 70/30 Acetonitrile/H2O mix containing 0.15 mM cGAMP-^13C10^5N5 as internal standard and mixed for […]. After centrifugation (3700 rpm, 10 min, 10° Celsius), […] of each reaction was collected and mixed to equal volume of Acetonitrile. Samples were then analyzed on Qexective (Column: XBridge BEH Amide Column, 130 Å, 3.5 μm, 3 mm×50 mm, Mobile phase A: 10 mM Ammonium acetate in 95/5% H2O/Acetonitrile (0.5% DMSO), Mobile phase B: Acetonitrile (0.5% DMSO).
The results of the assay, expressed as IC50 values, are reported in Table D with the following designations: A represents an IC50 value<0.005 μM; B represents an IC50 value≥0.005 μM and <0.02 μM, C represents an IC50 value≥0.02 μM and <0.06 μM; D represents an IC50 value≥0.06 and <0.2 μM; E represents an IC50 value≥0.2.

hcGAS, sequence (Q8N884 whole entry): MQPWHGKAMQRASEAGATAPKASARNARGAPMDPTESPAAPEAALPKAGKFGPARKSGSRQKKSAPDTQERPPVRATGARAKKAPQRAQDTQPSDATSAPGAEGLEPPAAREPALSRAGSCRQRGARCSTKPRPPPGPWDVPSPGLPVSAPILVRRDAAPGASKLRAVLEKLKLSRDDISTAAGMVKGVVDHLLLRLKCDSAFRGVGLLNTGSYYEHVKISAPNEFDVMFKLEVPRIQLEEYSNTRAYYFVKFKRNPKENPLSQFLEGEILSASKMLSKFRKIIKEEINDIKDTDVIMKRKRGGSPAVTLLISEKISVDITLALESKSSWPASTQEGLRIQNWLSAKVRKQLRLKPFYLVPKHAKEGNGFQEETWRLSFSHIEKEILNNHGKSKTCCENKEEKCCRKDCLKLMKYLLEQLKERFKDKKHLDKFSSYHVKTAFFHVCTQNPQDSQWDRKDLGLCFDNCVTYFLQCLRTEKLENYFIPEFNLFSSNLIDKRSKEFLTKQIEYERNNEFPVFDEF

IC50 [nM]	SMILES
20 to 60	COc1c(N2C[C@H](OC)CC2=O)cc(C(=O)Nc2nnc(-n3nccc3C)s2)oc1=O [Compound 154, (R)-3-methoxy-4-(4-methoxy-2-oxopyrrolidin-1-yl)-N-(5-(5-methyl-1H-pyrazol-1-yl)-1,3,4-thiadiazol-2-yl)-2-oxo-2H-pyran-6-carboxamide]
5 to 20	COc1c(N2C[C@@H](OC)CC2=O)cc(C(=O)Nc2nnc(-n3nccc3C)s2)oc1=O [Compound 155, (S)-3-methoxy-4-(4-methoxy-2-oxopyrrolidin-1-yl)-N-(5-(5-methyl-1H-pyrazol-1-yl)-1,3,4-thiadiazol-2-yl)-2-oxo-2H-pyran-6-carboxamide]
60 to 200	COCCNc1cc(C(=O)Nc2nnc(-c3c(Cl)nsc3Cl)s2)oc(=O)c1OC [Compound 156, N-(5-(3,5-dichloroisothiazol-4-yl)-1,3,4-thiadiazol-2-yl)-3-methoxy-4-((2-methoxyethyl)amino)-2-oxo-2H-pyran-6-carboxamide]
5 to 20	COc1c(N[C@H]2COC[C@H]2OC)cc(C(=O)Nc2nnc(-n3nccc3C)s2)oc1=O [Compound 160, 3-Methoxy-4-(((3S,4S)-4-methoxytetrahydrofuran-3-yl)amino)-N-(5-(5-methyl-1H-pyrazol-1-yl)-1,3,4-thiadiazol-2-yl)-2-oxo-2H-pyran-6-carboxamide]
< 5	COc1c(N[C@H](C)[C@@H](C)OC)cc(C(=O)Nc2nnc(-n3nccc3C)s2)oc1=O [Compound 161, 5-methoxy-4-{[(2R,3R)-3-methoxybutan-2-yl]amino}-N-[5-(5-methylpyrazol-1-yl)-1,3,4-thiadiazol-2-yl]-6-oxopyran-2-carboxamide]
5 to 20	COc1c(N[C@@H]2COC[C@@H]2OC)cc(C(=O)Nc2nnc(-n3nccc3C)s2)oc1=O [Compound 162, 5-methoxy-4-{[(3R,4R)-4-methoxyoxolan-3-yl]amino}-N-[5-(5-methylpyrazol-1-yl)-1,3,4-thiadiazol-2-yl]-6-oxopyran-2-carboxamide]
60 to 200	COc1c(N[C@@H](C)[C@H](C)OC)cc(C(=O)Nc2nnc(-n3nccc3C)s2)oc1=O [Compound 163]
60 to 200	COC[C@H](Cc1ccccc1)Nc1cc(C(=O)Nc2nnc(-n3nccc3C)s2)oc(=O)c1OC [Compound 165, (S)-3-methoxy-4-((1-methoxy-3-phenylpropan-2-yl)amino)-N-(5-(5-methyl-1H-pyrazol-1-yl)-1,3,4-thiadiazol-2-yl)-2-oxo-2H-pyran-6-carboxamide]
< 5	COc1c(N[C@H](C)[C@H](C)OC)cc(C(=O)Nc2nnc(-n3nccc3C)s2)oc1=O [Compound 166, 3-methoxy-4-(((2R,3S)-3-methoxybutan-2-yl)amino)-N-(5-(5-methyl-1H-pyrazol-1-yl)-1,3,4-thiadiazol-2-yl)-2-oxo-2H-pyran-6-carboxamide]
60 to 200	COc1c(NCCOC2CC2)cc(C(=O)Nc2nnc(-n3nccc3C)s2)oc1=O [Compound 168, 4-((2-cyclopropoxyethyl)amino)-3-methoxy-N-(5-(5-methyl-1H-pyrazol-1-yl)-1,3,4-thiadiazol-2-yl)-2-oxo-2H-pyran-6-carboxamide]
≥ 200	COc1c(NCCO[C@@H]2CCOC2)cc(C(=O)Nc2nnc(-n3nccc3C)s2)oc1=O [Compound 169, 5-methoxy-N-[5-(5-methylpyrazol-1-yl)-1,3,4-thiadiazol-2-yl]-6-oxo-4-({2-[(3R)-oxolan-3-yloxy]ethyl}amino)pyran-2-carboxamide]

Continued, compound first:

SMILES	IC50 [nM]
COc1c(NC23CC(O)(C2)C3)cc(C(=O)Nc2nnc(-n3nccc3C)s2)oc1=O [Compound 126, 4-((3-hydroxybicyclo[1.1.1]pentan-1-yl)amino)-3-methoxy-N-(5-(5-methyl-1H-pyrazol-1-yl)-1,3,4-thiadiazol-2-yl)-2-oxo-2H-pyran-6-carboxamide]	5 to 20
COC[C@@H](C)Nc1cc(C(=O)Nc2nnc(-c3c(Cl)ccn3C)s2)oc(=O)c1OC [Compound 128, (R)-N-(5-(3-chloro-1-methyl-1H-pyrrol-2-yl)-1,3,4-thiadiazol-2-yl)-3-methoxy-4-((1-methoxypropan-2-yl)amino)-2-oxo-2H-pyran-6-carboxamide]	< 5
COCCNc1cc(C(=O)Nc2nnc(-c3ccsc3Cl)s2)oc(=O)c1OC [Compound 135, N-(5-(2-chlorothiophen-3-yl)-1,3,4-thiadiazol-2-yl)-3-methoxy-4-((2-methoxyethyl)amino)-2-oxo-2H-pyran-6-carboxamide]	20 to 60
COCCNc1cc(C(=O)Nc2nnc(-c3cscc3C#N)s2)oc(=O)c1OC [Compound 138, N-[5-(4-cyanothiophen-3-yl)-1,3,4-thiadiazol-2-yl]-5-methoxy-4-[(2-methoxyethyl)amino]-6-oxopyran-2-carboxamide]	≥ 200
COCCNc1cc(C(=O)Nc2nnc(-c3c(C#N)csc3C)s2)oc(=O)c1OC [Compound 140, N-(5-(4-cyano-2-methylthiophen-3-yl)-1,3,4-thiadiazol-2-yl)-3-methoxy-4-((2-methoxyethyl)amino)-2-oxo-2H-pyran-6-carboxamide]	60 to 200
COC[C@@H](C)Nc1cc(C(=O)Nc2nnc(-n3nccc3CO)s2)oc(=O)c1OC [Compound 142, (R)—N-(5-(5-(hydroxymethyl)-1H-pyrazol-1-yl)-1,3,4-thiadiazol-2-yl)-3-methoxy-4-((1-methoxypropan-2-yl)amino)-2-oxo-2H-pyran-6-carboxamide]	20 to 60
COCC(COC)Nc1cc(C(=O)Nc2nnc(-n3nccc3CO)s2)oc(=O)c1OC [Compound 143, 4-((1,3-dimethoxypropan-2-yl)amino)-N-(5-(5-(hydroxymethyl)-1H-pyrazol-1-yl)-1,3,4-thiadiazol-2-yl)-3-methoxy-2-oxo-2H-pyran-6-carboxamide]	20 to 60
COCCNc1cc(C(=O)Nc2nnc(-c3sccc3C#N)s2)oc(=O)c1OC [Compound 145, N-(5-(3-cyanothiophen-2-yl)-1,3,4-thiadiazol-2-yl)-3-methoxy-4-((2-methoxyethyl)amino)-2-oxo-2H-pyran-6-carboxamide]	≥ 200
COCC(C)(C)COc1c(NC23CC(C2)C3)cc(C(=O)Nc2nnc(-n3nccc3C)s2)oc1=O [Compound 149, 4-(bicyclo[1,1,1]pentan-1-ylamino)-(3-methoxy-2,2-dimethylpropoxy)-N-(5-(5-methyl-1H-pyrazol-1-yl)-1,3,4-thiadiazol-2-yl)-2-oxo-2H-pyran-6-carboxamide]	5 to 20
COc1c(N2CC[C@@H](OC)C2=O)cc(C(=O)Nc2nnc(-n3nccc3C)s2)oc1=O [Compound 150, (R)-3-methoxy-4-(3-methoxy-2-oxopyrrolidin-1-yl)-N-(5-(5-methyl-1H-pyrazol-1-yl)-1,3,4-thiadiazol-2-yl)-2-oxo-2H-pyran-6-carboxamide]	5 to 20
COc1c(N2CC[C@H](OC)C2=O)cc(C(=O)Nc2nnc(-n3nccc3C)s2)oc1=O [Compound 151, 5-methoxy-4-[(3S)-3-methoxy-2-oxopyrrolidin-1-yl]-N-[5-(5-methylpyrazol-1-yl)-1,3,4-thiadiazol-2-yl]-6-oxopyran-2-carboxamide]	5 to 20
COCC1(Nc2cc(C(=O)Nc3nnc(-n4nccc4C)s3)oc(=O)c2OC)CCCC1 [Compound 152, 3-methoxy-4-((1-(methoxymethyl)cyclopentyl)amino)-N-(5-(5-methyl-1H-pyrazol-1-yl)-1,3,4-thiadiazol-2-yl)-2-oxo-2H-pyran-6-carboxamide]	5 to 20
